Source: PMC7582373, “Bis-Lactam Peptide [i, i+4]-Stapling with α-Methylated Thialysines” (Molecules, 2020)
*1 amine or outer side, *2 acyl side, *3 side chain or, on linkers, in order; H or OH if unused. Where a SMILES comes first, the peptide text is derived from it. Bridges are numbered along the chain shown (N, C = ends). [ ]: non-standard residue; d: D form. X1 = O=C(Cc1ccc(CC(=O)NCC[*:2])cc1)NCC[*:1]; αMeC = C[C@](N)(CS)C(=O)O

How the values were obtained:
circular dichroism = conditions: water; pH ns; 25 °C; 25 and/or 50 uM
in vitro = in vitro ADME; conditions: Streptomyces griseus, isolated enzyme pronase, pH 7.3
Description: We further compared the proteolytic stability of the L-α-methyl-thialysine-stapled peptide 5 and the L-thialysine-stapled peptide 6 by employing pronase as the proteolytic enzyme preparation in a proteolysis experiment. Of note, pronase is a mixture of a variety of different proteases/peptidases and therefore has a very broad substrate specificity. […] This observed difference in the proteolytic stability of 5 and 6 is in the same direction of change with the % α-helicity of 5 and 6 (see above), which would be consistent with the notion that an enhanced % α-helicity would improve the proteolytic stability of a stapled peptide, which was also supported previously with the peptides stapled with other stapling systems such as the all-hydrocarbon-stapled peptides.
The following materials were obtained from commercial sources for compound synthesis/purification and the pronase digestion assay, and were used as received. Sigma-Aldrich China (Shanghai, China): N-methylmorpholine (NMM), trifluoroacetic acid (TFA), N,N-dimethylformamide (DMF), N-(allyloxycarbonyloxy)succinimide (Alloc-OSu), triethylamine, Trizma, the pronase from Streptomyces griseus; TCI Shanghai: para-phenylenediacetic acid, 2-(tert-butoxycarbonylamino)ethyl bromide, 1,8-diazabicyclo[5.4.0]undec-7-ene (DBU), L-cysteine, N-(9-fluorenylmethoxycarbonyloxy) succinimide (Fmoc-OSu), phenylsilane (PhSiH3), tetrakis(triphenylphosphine)palladium (Pd(PPh3)4); Alfa Aesar China (Shanghai, China): 2-(1H-benzotriazole-1-yl)-1,1,3,3-tetramethylaminium hexafluorophosphate (HBTU), 2-(7-Aza-1H-benzotriazole-1-yl)-1,1,3,3-tetramethyluronium hexafluorophosphate (HATU), N-hydroxybenzotriazole (HOBt), phenol, thioanisole, ethanedithiol; Honeywell China (Shanghai, China): acetonitrile, dichloromethane (DCM), methanol, ethyl acetate; Sinopharm Chemical Reagent Co., Ltd. (Shanghai, China): acetic anhydride, diethyl ether, semi-preparative thin-layer chromatography (TLC) silica gel plate (HSGF254, 20 × 20 cm, 0.4–0.5 mm); Shanghai Plus Bio-Sci & Tech Co., Ltd. (Shanghai, China): Rink amide 4-methylbenzhydrylamine (MBHA) resin; SyncoZymes Co., Ltd. (Shanghai, China): D-2-methyl-cysteine hydrochloride; Fisher Scientific Worldwide Co., Ltd. (Shanghai, China): L-2-methyl-cysteine hydrochloride.
This experiment followed the protocol described previously. Fifty (50) µL of an 160 μM solution of a peptide (5, 6, 7, or 8) in ddH2O was thoroughly mixed with 50 μL of an 8 ng/μL solution of pronase in 100 mM Tris•HCl (pH 7.3), and the resultant solution was incubated at 37 °C until quenched at different time points (0 min, 4 min, 7.5 min, and 15 min) with an 1.0 M solution of acetic acid in ddH2O. Twenty (20) μL of a pronase digestion solution was taken at each time point and treated immediately with 40 μL of the 1.0 M acetic acid aqueous solution, followed instantly by vigorous vortexing and centrifugation. The obtained supernatant was then injected into a C18 analytical HPLC column (0.46 × 25 cm, 5 μm), and the column was eluted at 1 mL/min with ultraviolet monitoring at 214 nm with the following gradients of ddH2O containing 0.05% (v/v) TFA (mobile phase A) and acetonitrile containing 0.05% (v/v) TFA (mobile phase B): linear increase of B from 0% to 45% in 60 min (for 5 and 6), linear increase of B from 0% to 60% in 60 min (for 7), or linear increase of B from 0% to 100% in 60 min (for 8). The integrated HPLC peak areas at different time points for a given peptide were used to estimate the percentage remaining for the peptide as the function of the digestion time.

| SMILES | helicity (circular dichroism) | remaining at 4 min, 80 µM (in vitro) | remaining at 0.125 h, 80 µM (in vitro) | remaining at 0.25 h, 80 µM (in vitro) |
| --- | --- | --- | --- | --- |
| CC(=O)N[C@@H](CCC(=O)O)C(=O)N[C@@H](Cc1c[nH]c2ccccc12)C(=O)N[C@@H](C)C(=O)N[C@@H](CCC(=O)O)C(=O)N[C@H](C(=O)N[C@@H](C)C(=O)N[C@@H](C)C(=O)N[C@@]1(C)CSCCNC(=O)Cc2ccc(cc2)CC(=O)NCCSC[C@@](C)(C(=O)N[C@@H](C)C(=O)N[C@@H](Cc2c[nH]cn2)C(=O)N[C@@H](C)C(N)=O)NC(=O)[C@H](CC(C)C)NC(=O)[C@H](Cc2ccccc2)NC(=O)[C@H](CCCCN)NC1=O)[C@@H](C)O [compound 7] (Ac-EWAETAA[αMeC]KFL[αMeC]AHA-NH2; linker 8-12 via X1) | 13.5% | ~96.6% | ~93.3% | ~81.3% |
| CC[C@H](C)[C@H](NC(=O)[C@H](CCC(=O)O)NC(=O)[C@H](CO)NC(C)=O)C(=O)N[C@H](C(=O)N[C@@H](CCCCN)C(=O)N[C@@H](CCC(N)=O)C(=O)N[C@@H](CCC(=O)O)C(=O)N[C@@H](CCCCN)C(=O)N[C@]1(C)CSCCNC(=O)Cc2ccc(cc2)CC(=O)NCCSC[C@](C)(C(=O)N[C@@H](Cc2c[nH]cn2)C(=O)N[C@@H](CCCNC(=N)N)C(=O)N[C@@H](Cc2c[nH]cn2)C(=O)N[C@@H](Cc2ccc(O)cc2)C(=O)N[C@@H](CS)C(N)=O)NC(=O)[C@H](Cc2c[nH]c3ccccc23)NC(=O)[C@H](CC(C)C)NC(=O)[C@H](Cc2ccccc2)NC1=O)[C@@H](C)O | 10.4% | – | – | – |
| CC[C@H](C)[C@H](NC(=O)[C@H](CCC(=O)O)NC(=O)[C@H](CO)NC(C)=O)C(=O)N[C@H](C(=O)N[C@@H](CCCCN)C(=O)N[C@@H](CCC(N)=O)C(=O)N[C@@H](CCC(=O)O)C(=O)N[C@@H](CCCCN)C(=O)N[C@@]1(C)CSCCNC(=O)Cc2ccc(cc2)CC(=O)NCCSC[C@@](C)(C(=O)N[C@@H](Cc2c[nH]cn2)C(=O)N[C@@H](CCCNC(=N)N)C(=O)N[C@@H](Cc2c[nH]cn2)C(=O)N[C@@H](Cc2ccc(O)cc2)C(=O)N[C@@H](CS)C(N)=O)NC(=O)[C@H](Cc2c[nH]c3ccccc23)NC(=O)[C@H](CC(C)C)NC(=O)[C@H](Cc2ccccc2)NC1=O)[C@@H](C)O [compound 5] | 10.4% | ~19.2% | ~5.6% | – |
| CC[C@H](C)[C@H](NC(=O)[C@H](CCC(=O)O)NC(=O)[C@H](CO)NC(C)=O)C(=O)N[C@H](C(=O)N[C@@H](CCCCN)C(=O)N[C@@H](CCC(N)=O)C(=O)N[C@@H](CCC(=O)O)C(=O)N[C@@H](CCCCN)C(=O)N[C@H]1CSCCNC(=O)Cc2ccc(cc2)CC(=O)NCCSC[C@@H](C(=O)N[C@@H](Cc2c[nH]cn2)C(=O)N[C@@H](CCCNC(=N)N)C(=O)N[C@@H](Cc2c[nH]cn2)C(=O)N[C@@H](Cc2ccc(O)cc2)C(=O)N[C@@H](CS)C(N)=O)NC(=O)[C@H](Cc2c[nH]c3ccccc23)NC(=O)[C@H](CC(C)C)NC(=O)[C@H](Cc2ccccc2)NC1=O)[C@@H](C)O [compound 6] (Ac-SEITKQEKCFLWCHRHYC-NH2; linker 9-13 via X1) | 4.4% | ~11.1% | ~4.3% | – |
| CC(=O)N[C@@H](CCC(=O)O)C(=O)N[C@@H](Cc1c[nH]c2ccccc12)C(=O)N[C@@H](C)C(=O)N[C@@H](CCC(=O)O)C(=O)N[C@H](C(=O)N[C@@H](C)C(=O)N[C@@H](C)C(=O)N[C@H]1CSCCNC(=O)Cc2ccc(cc2)CC(=O)NCCSC[C@@H](C(=O)N[C@@H](C)C(=O)N[C@@H](Cc2c[nH]cn2)C(=O)N[C@@H](C)C(N)=O)NC(=O)[C@H](CC(C)C)NC(=O)[C@H](Cc2ccccc2)NC(=O)[C@H](CCCCN)NC1=O)[C@@H](C)O [compound 8] (Ac-EWAETAACKFLCAHA-NH2; linker 8-12 via X1) | 7.9% | ~48.9% | ~35.7% | ~21.6% |
| CC[C@H](C)[C@H](NC(=O)[C@H](CCC(=O)O)NC(=O)[C@H](CO)NC(C)=O)C(=O)N[C@H](C(=O)N[C@@H](CCCCN)C(=O)N[C@@H](CCC(N)=O)C(=O)N[C@@H](CCC(=O)O)C(=O)N[C@@H](CCCCN)C(=O)N[C@@]1(C)CSCCNC(=O)Cc2ccc(cc2)CC(=O)NCCSC[C@](C)(C(=O)N[C@@H](Cc2c[nH]cn2)C(=O)N[C@@H](CCCNC(=N)N)C(=O)N[C@@H](Cc2c[nH]cn2)C(=O)N[C@@H](Cc2ccc(O)cc2)C(=O)N[C@@H](CS)C(N)=O)NC(=O)[C@H](Cc2c[nH]c3ccccc23)NC(=O)[C@H](CC(C)C)NC(=O)[C@H](Cc2ccccc2)NC1=O)[C@@H](C)O | 11.8% | – | – | – |
| CC[C@H](C)[C@H](NC(=O)[C@H](CCC(=O)O)NC(=O)[C@H](CO)NC(C)=O)C(=O)N[C@H](C(=O)N[C@@H](CCCCN)C(=O)N[C@@H](CCC(N)=O)C(=O)N[C@@H](CCC(=O)O)C(=O)N[C@@H](CCCCN)C(=O)N[C@]1(C)CSCCNC(=O)Cc2ccc(cc2)CC(=O)NCCSC[C@@](C)(C(=O)N[C@@H](Cc2c[nH]cn2)C(=O)N[C@@H](CCCNC(=N)N)C(=O)N[C@@H](Cc2c[nH]cn2)C(=O)N[C@@H](Cc2ccc(O)cc2)C(=O)N[C@@H](CS)C(N)=O)NC(=O)[C@H](Cc2c[nH]c3ccccc23)NC(=O)[C@H](CC(C)C)NC(=O)[C@H](Cc2ccccc2)NC1=O)[C@@H](C)O | 11.1% | – | – | – |
